The compounds below were run against T1, PIK3CA (Homo sapiens, UniProt P42336) (assay: In vitro ELISA target engagement assay for PIK3CA in Jurkat cellular lysate (competition with PIK3CA Biotin Probe)). Conditions: 1 hour at rt, then 500 nM PIK3CA Biotin Probe, read-out: Elisa Target Engagement Assay (TE50).
T1 construct: endogenous in cells; host or cells: Jurkat cell lysate
Format: binding
Protocol: Example 3. In Vitro ELISA Target Engagement Assay for […] Engagement of compounds on PIK3CA were assessed in Jurkat cellular lysate via a sandwich ELISA. A solution of PIK3CA Biotin Probe was generated at 10 mM and used in the biological testing. […] Treatment Protocol: Jurkat cellular lysate was generated from frozen cell pellets. Cells were thawed on ice and resuspended in cold Dulbecco's phosphate buffered saline (DPBS) (12 mL/300 e^6 cells) then lysed by probe sonication (12×3 second pulses). Jurkat lysate was plated (50 μl/well) in Armadillo 96 well PCR plates (Thermo Fisher catalog number AB2396). The lysate was treated with serial dilutions of test compounds up to 200 μM and incubated for 1 hour at rt. Following compound incubation, PIK3CA Biotin Probe was added to a final concentration of 500 nM, and lysate was mixed by pipetting gently and incubated for an additional 1 hour at rt. The mixture was then diluted in 75 μL Dilution buffer. The mixture was centrifuged for 5 minutes at 4122 g and stored at −80° C. until ELISA TE detection. ELISA TE Detection: Quantification of PIK3CA TE was initiated by coating of the ELISA plate (Thermo Scientific White 384-Well Immuno plates; Thermo Fisher catalog number 460372). The capture antibody was diluted in plating buffer (1:83) and added to the ELISA plate, 20 μl/well, overnight at 4° C. The plate was then washed twice with PBST, 100 μl/well, and blocked with addition of blocking buffer (100 μl/well, 1 hour at rt). During block, treated and probe labeled lysate was thawed. After Block, the block buffer was removed and the thawed lysate was added to the ELISA plate, 30 μl/well, for 1.5 hours at rt. Following lysate incubation, the assay plate was washed 3 times with PBST, 100 μl/well. The Neutravidin-HRP was then diluted (1:500 in dilution buffer) and added for 1 hour at rt, 20 μl/well. Following incubation, the assay plate was washed 4 times with PBST, 100 μl/well, HRP substrate was added to plate, 20 μl/well and luminescence signal was read (Clariostar Plate Reader). For each compound the potency of target engagement (TE50) was determined using Graphpad Prism.

T1 sequence (P42336 whole entry): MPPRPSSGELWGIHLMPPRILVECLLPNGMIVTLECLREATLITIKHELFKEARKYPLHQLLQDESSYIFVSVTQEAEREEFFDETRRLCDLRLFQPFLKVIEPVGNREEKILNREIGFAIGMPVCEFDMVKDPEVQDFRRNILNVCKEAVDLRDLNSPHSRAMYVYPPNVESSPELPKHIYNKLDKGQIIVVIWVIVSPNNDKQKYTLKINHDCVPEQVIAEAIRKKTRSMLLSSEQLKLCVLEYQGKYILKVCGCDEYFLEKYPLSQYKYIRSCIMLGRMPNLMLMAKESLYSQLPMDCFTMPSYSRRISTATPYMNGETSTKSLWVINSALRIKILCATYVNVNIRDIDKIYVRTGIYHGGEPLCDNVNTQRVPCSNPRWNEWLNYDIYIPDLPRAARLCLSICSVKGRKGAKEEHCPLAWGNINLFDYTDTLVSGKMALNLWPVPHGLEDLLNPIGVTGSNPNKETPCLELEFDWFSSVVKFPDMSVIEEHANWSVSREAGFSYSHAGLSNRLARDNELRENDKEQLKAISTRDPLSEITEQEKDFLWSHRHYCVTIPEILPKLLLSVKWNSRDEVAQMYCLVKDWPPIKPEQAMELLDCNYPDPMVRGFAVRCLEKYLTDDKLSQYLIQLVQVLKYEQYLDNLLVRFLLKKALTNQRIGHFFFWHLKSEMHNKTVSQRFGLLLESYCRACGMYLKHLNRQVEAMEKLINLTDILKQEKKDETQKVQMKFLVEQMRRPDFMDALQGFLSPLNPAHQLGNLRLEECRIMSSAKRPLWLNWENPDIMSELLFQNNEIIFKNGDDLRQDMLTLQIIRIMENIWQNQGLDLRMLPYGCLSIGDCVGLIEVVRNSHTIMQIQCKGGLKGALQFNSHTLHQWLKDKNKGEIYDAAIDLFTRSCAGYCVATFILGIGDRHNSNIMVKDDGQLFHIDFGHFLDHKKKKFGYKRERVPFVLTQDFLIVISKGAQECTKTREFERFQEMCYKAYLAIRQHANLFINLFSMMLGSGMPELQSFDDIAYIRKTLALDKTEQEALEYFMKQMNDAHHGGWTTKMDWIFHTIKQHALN
T1 sequence (P27986 whole entry partner): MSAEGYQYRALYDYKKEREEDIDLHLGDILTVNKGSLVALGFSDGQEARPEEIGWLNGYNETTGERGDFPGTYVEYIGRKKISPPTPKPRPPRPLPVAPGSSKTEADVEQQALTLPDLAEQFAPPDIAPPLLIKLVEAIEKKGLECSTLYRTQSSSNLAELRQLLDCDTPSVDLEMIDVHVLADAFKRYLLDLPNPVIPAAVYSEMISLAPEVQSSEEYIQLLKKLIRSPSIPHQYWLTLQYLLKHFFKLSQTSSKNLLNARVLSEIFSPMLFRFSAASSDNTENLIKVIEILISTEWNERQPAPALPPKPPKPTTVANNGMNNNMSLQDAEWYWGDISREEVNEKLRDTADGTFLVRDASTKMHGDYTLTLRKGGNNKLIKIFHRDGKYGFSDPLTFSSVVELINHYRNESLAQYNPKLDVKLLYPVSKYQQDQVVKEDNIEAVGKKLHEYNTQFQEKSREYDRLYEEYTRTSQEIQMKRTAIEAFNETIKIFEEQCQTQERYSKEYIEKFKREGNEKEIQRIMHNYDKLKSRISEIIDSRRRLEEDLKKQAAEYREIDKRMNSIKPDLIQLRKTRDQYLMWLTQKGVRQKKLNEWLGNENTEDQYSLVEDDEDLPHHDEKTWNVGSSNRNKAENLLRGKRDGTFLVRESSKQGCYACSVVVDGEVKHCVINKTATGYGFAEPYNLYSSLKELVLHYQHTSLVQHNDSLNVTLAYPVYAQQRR

| SMILES | IC50 [nM] |
| --- | --- |
| O=C(NC1C=CS(=O)(=O)C1)C1(F)CCN(S(=O)(=O)c2ccc(Br)cc2-c2ccccc2Cl)CC1 (racemic) [Compound 65, rac-1-((5-bromo-2′-chloro-[1,1′-biphenyl]-2-yl)sulfonyl)-N-(1,1-dioxido-2,3-dihydrothiophen-3-yl)-4-fluoropiperidine-4-carboxamide] | 54 |
| C[C@H](/C=C\S(C)(=N)=O)NC(=O)C1(F)CCN(S(=O)(=O)c2ccc(Br)cc2-c2ccccc2Cl)CC1 (mixture of isomers) [Compound 73, 1-((5-bromo-2′-chloro-[1,1′-biphenyl]-2-yl)sulfonyl)-4-fluoro-N-((2R,Z)-4-(S-methylsulfonimidoyl)but-3-en-2-yl)piperidine-4-carboxamide] | 304 |
| C[C@H](/C=C\[S@](C)(=N)=O)NC(=O)C1(F)CCN(S(=O)(=O)c2ccc(Br)cc2-c2ccccc2Cl)CC1 (single isomer, unassigned) [Compound 74, 1-((5-bromo-2′-chloro-[1,1′-biphenyl]-2-yl)sulfonyl)-4-fluoro-N-((R,Z)-4-((*R)-S-methylsulfonimidoyl)but-3-en-2-yl)piperidine-4-carboxamide] | 410 |
| COc1ccc(S(=O)(=O)N2CC[C@](F)(C(=O)N[C@H](C)/C=C\S(C)(=O)=O)C[C@H]2C)c(-c2ccccc2Cl)c1 (single isomer, unassigned) [Compound 147, (2*R,4*R)-1-((2′-chloro-5-methoxy-[1,1′-biphenyl]-2-yl)sulfonyl)-4-fluoro-2-methyl-N-((R,Z)-4-(methylsulfonyl)but-3-en-2-yl)piperidine-4-carboxamide] | 390 |
| CCOCc1cccc(-c2cc(Cl)ccc2S(=O)(=O)N2CCC(F)(C(=O)N[C@@H](C)/C=C\S(C)(=O)=O)CC2)c1 [Compound 17, (S,Z)-1-((5-chloro-3′-(ethoxymethyl)-[1,1′-biphenyl]-2-yl)sulfonyl)-4-fluoro-N-(4-(methylsulfonyl)but-3-en-2-yl)piperidine-4-carboxamide] | 760 |
| C[C@@H](/C=C\S(C)(=O)=O)NC(=O)C1(F)CCN(S(=O)(=O)c2ccc(C(F)(F)F)cc2-c2ccccc2Cl)CC1 [Compound 18, (S,Z)-1-((2′-chloro-5-(trifluoromethyl)-[1,1′-biphenyl]-2-yl)sulfonyl)-4-fluoro-N-(4-(methylsulfonyl)but-3-en-2-yl)piperidine-4-carboxamide] | 38 |
| COc1cccc(-c2ccccc2S(=O)(=O)N2CCC(F)(C(=O)N[C@@H](C)/C=C\S(C)(=O)=O)CC2)c1 [Compound 19, (S,Z)-4-fluoro-1-((3′-methoxy-[1,1′-biphenyl]-2-yl)sulfonyl)-N-(4-(methylsulfonyl)but-3-en-2-yl)piperidine-4-carboxamide] | 744 |
| C[C@H](/C=C\S(C)(=O)=O)NC(=O)C1(F)CCN(S(=O)(=O)c2ccc(Cl)cc2-c2ccccc2Cl)CC1 [Compound 23, (R,Z)-1-((2′,5-dichloro-[1,1′-biphenyl]-2-yl)sulfonyl)-4-fluoro-N-(4-(methylsulfonyl)but-3-en-2-yl)piperidine-4-carboxamide] | 91 |
| C[C@H](/C=C\S(C)(=O)=O)NC(=O)C1(F)CCN(S(=O)(=O)c2ccc(Br)cc2-c2cc(F)ccc2Cl)CC1 [Compound 48, (R,Z)-1-((5-bromo-2′-chloro-5′-fluoro-[1,1′-biphenyl]-2-yl)sulfonyl)-4-fluoro-N-(4-(methylsulfonyl)but-3-en-2-yl)piperidine-4-carboxamide] | 481 |
| Cc1ccccc1-c1cc(Br)ccc1S(=O)(=O)N1CCC(F)(C(=O)N[C@H](C)/C=C\S(C)(=O)=O)CC1 [Compound 49, (R,Z)-1-((5-bromo-2′-methyl-[1,1′-biphenyl]-2-yl)sulfonyl)-4-fluoro-N-(4-(methylsulfonyl)but-3-en-2-yl)piperidine-4-carboxamide] | 125 |
| C[C@H](/C=C\S(C)(=O)=O)NC(=O)C1(F)CCN(S(=O)(=O)c2ccc(Br)cc2-c2ccc(F)cc2Cl)CC1 [Compound 50, (R,Z)-1-((5-bromo-2′-chloro-4′-fluoro-[1,1′-biphenyl]-2-yl)sulfonyl)-4-fluoro-N-(4-(methylsulfonyl)but-3-en-2-yl)piperidine-4-carboxamide] | 319 |
| CCc1ccccc1-c1cc(Br)ccc1S(=O)(=O)N1CCC(F)(C(=O)N[C@H](C)/C=C\S(C)(=O)=O)CC1 [Compound 51, (R,Z)-1-((5-bromo-2′-ethyl-[1,1′-biphenyl]-2-yl)sulfonyl)-4-fluoro-N-(4-(methylsulfonyl)but-3-en-2-yl)piperidine-4-carboxamide] | 550 |

Other lines, results leading:

| IC50 [nM] | SMILES |
| --- | --- |
| 780 | C[C@H](/C=C\S(C)(=O)=O)NC(=O)C1(F)CCN(C(=O)[C@H]2COC(C)(C)C[C@@H]2c2ccccc2Cl)CC1 (racemic) [Compound 256, 1-((3*R,4*S)-4-(2-chlorophenyl)-6,6-dimethyltetrahydro-2H-pyran-3-carbonyl)-4-fluoro-N-((R,Z)-4-(methylsulfonyl)but-3-en-2-yl)piperidine-4-carboxamide] |
| 420 | C[C@H](/C=C\S(C)(=O)=O)NC(=O)C1(F)CCN(C(=O)[C@@H]2CCC3(CCC3)C[C@H]2c2ccccc2Cl)CC1 (racemic) [Compound 257, 1-((6*R,7*R)-6-(2-chlorophenyl)spiro[3.5]nonane-7-carbonyl)-4-fluoro-N-((R,Z)-4-(methylsulfonyl)but-3-en-2-yl)piperidine-4-carboxamide] |
| 660 | C[C@H](/C=C\S(C)(=O)=O)NC(=O)C1(F)CCN(C(=O)[C@H]2CCN(C(=O)OC(C)(C)C)C[C@H]2c2ccccc2Cl)CC1 (relative stereo) [Compound 259, tert-butyl (3*R,4*S)-3-(2-chlorophenyl)-4-(4-fluoro-4-(((R,Z)-4-(methylsulfonyl)but-3-en-2-yl)carbamoyl)piperidine-1-carbonyl)piperidine-1-carboxylate] |
| 600 | COc1ccc(S(=O)(=O)N2CC[C@@](F)(C(=O)N[C@H](C)/C=C\S(C)(=O)=O)C[C@@H]2C)c(-c2ccccc2Cl)c1 (single isomer, unassigned) [Compound 148, (2*S,4*S)-1-((2′-chloro-5-methoxy-[1,1′-biphenyl]-2-yl)sulfonyl)-4-fluoro-2-methyl-N-((R,Z)-4-(methylsulfonyl)but-3-en-2-yl)piperidine-4-carboxamide] |
| 310 | COc1ccc(S(=O)(=O)N2CC[C@](F)(C(=O)N[C@H](C)/C=C\S(C)(=O)=O)CC2(C)C)c(-c2ccccc2Cl)c1 (single isomer, unassigned) [Compound 150, (*R)-1-((2′-chloro-5-methoxy-[1,1′-biphenyl]-2-yl)sulfonyl)-4-fluoro-2,2-dimethyl-N-((R,Z)-4-(methylsulfonyl)but-3-en-2-yl)piperidine-4-carboxamide] |
| 170 | C[C@H](/C=C\S(C)(=O)=O)NC(=O)[C@@]1(F)CCCN(C(=O)[C@@H]2CN(CC(F)(F)F)C[C@@H]2c2c(F)ccc(F)c2Cl)CC1 (single isomer, unassigned) [Compound 226, (R)-1-((3*S,4*S)-4-(2-chloro-3,6-difluorophenyl)-1-(2,2,2-trifluoroethyl)pyrrolidine-3-carbonyl)-4-fluoro-N-((R,Z)-4-(methylsulfonyl)but-3-en-2-yl)azepane-4-carboxamide] |
| 280 | COc1ccc(S(=O)(=O)N2CCC(F)(C(=O)N[C@H](/C=C\S(C)(=O)=O)CC(F)(F)F)CC2)c(-c2ccccc2Cl)c1 (single isomer, unassigned) [Compound 239, (*S,Z)-1-((2′-chloro-5-methoxy-[1,1′-biphenyl]-2-yl)sulfonyl)-4-fluoro-N-(5,5,5-trifluoro-1-(methylsulfonyl)pent-1-en-3-yl)piperidine-4-carboxamide] |
| 820 | C[C@@H]1C[C@](F)(C(=O)NC/C=C\C(=O)N2CC(F)(F)C2)CCN1C(=O)[C@H]1COC(C)(C)C[C@@H]1c1ccccc1Cl (single isomer, unassigned) [Compound 293, (2*R,4*S)-1-((3*R,4*S)-4-(2-chlorophenyl)-6,6-dimethyltetrahydro-2H-pyran-3-carbonyl)-N-((Z)-4-(3,3-difluoroazetidin-1-yl)-4-oxobut-2-en-1-yl)-4-fluoro-2-methylpiperidine-4-carboxamide] |
| 845 | C[C@H](/C=C\S(C)(=O)=O)NC(=O)C1(F)CCN(C(=O)[C@H]2CCN(CC(F)(F)F)C[C@@H]2c2ccccc2Cl)CC1 (single isomer, unassigned) [Compound 307, 1-((3*S,4*S)-3-(2-chlorophenyl)-1-(2,2,2-trifluoroethyl)piperidine-4-carbonyl)-4-fluoro-N-((R,Z)-4-(methylsulfonyl)but-3-en-2-yl)piperidine-4-carboxamide] |

Source: patent US20250026721A1, “COMPOUNDS AND METHODS FOR MODULATING RAS-PI3K” (Vividion Therapeutics, Inc., priority 2023, published 2025)
